According to patent US9238055B2, “Peptide bone forming peptide 4 for promoting osteogenesis or vascularization and use thereof” (Chonnam National University Hospital, priority 2011, dated 2016):
Where no end group is shown, it is not given here.

Tested on: mesenchymal stem cells
Assay: MTT assay for cytotoxicity
Assay type: cell-based, mouse
Settings: at concentrations effective for promoting osteogenic differentiation; FIG. 3
Description: At concentrations effective for calcium deposition, BFP 4 was analyzed for cytotoxicity. In this context, MTT ((3-(4,5-Dimethylthiazol-2-yl)-2,5-diphenyltetrazolium bromide, a yellow tetrazole) assay was performed using an MTT Cell Proliferation Assay Kit (Cayman Chemical) according to the instructions of the manufacturer.

FFKATEVHFRSIRST [BFP 4, Phe-Phe-Lys-Ala-Thr-Glu-Val-His-Phe-Arg-Ser-Ile-Arg-Ser-Thr]
Cytotoxicity (MTT): no cytotoxicity was detected
